# Data reported in patent US11534425B2, “Compounds for the treatment of acute organ injury” (priority 2018, dated 2022).
# Like-named read-outs stand apart in the source and are kept apart here.
# Tests used:
# [1] = test system: Primary rat cortical neurons; assay: Staurosporine (STS) injury assay, cell viability by CELLTITER-BLUE; format: cell-based
# Description: Primary rat cortical neurons were cultured on poly-D-lysine coated 96-well plates at a density of 1×10^5/well in Neurobasal medium+B27 supplement. 1/2 media swaps were given every 3 d. ARA-c was added to the medium on day in vitro (DIV) 3 to inhibit glial proliferation. On DIV9, maintenance media (2/3) was collected from plates and mixed with fresh media (1/3) to obtain ˜67% conditioned medium (CM). Staurosporine (STS) and drugs were prepared in 100% DMSO and diluted in CM. Uninjured controls received an equal concentration of DMSO. Primary cortical neurons were incubated with +STS+drugs for in 100 μL/well CM. Cell viability was determined 24 h later (DIV10) by CELLTITER-BLUE® (n=10 replicates/group). […] Data were analyzed by 1-Way-ANOVA and Newman-Keuls Multiple Comparison Test. Graphs show Mean+SEM. Data are significant at p<0.05. Conclusion: NSC74429 is a potent a neuroprotectant as determined by the STS cell death assay.
# [2] = test system: pAKT473; conditions: primary rat cortical neurons, Jackson et al., 2013; cited from earlier work
# [3] = test system: Primary rat cortical neurons; assay: Glutamate-excitotoxicity assay, cell viability by CELLTITER-BLUE; format: cell-based; conditions: 10 μM glutamic acid 5 min, viability 24 h later
# Description: (§1) Primary rat cortical neurons were cultured on poly-D-lysine coated 96-well plates at a density of 1×10^5/well in Neurobasal medium+B27 supplement. 1/2 media swaps were given every 3 d. ARA-c was added to the maintenance medium on day in vitro (DIV) 3 to inhibit glial proliferation. (A) On DIV9, maintenance media (2/3) was collected from plates and mixed with fresh media (1/3) to obtain 67% conditioned medium (CM). Cells were washed once with balanced salt solution (BSS supplemented with 5 mM glucose; 200 μL/well). BSS was replaced with BSS containing 10 μM glutamic acid, and incubated on cells 5 min to induce excitotoxicity. Glutamic acid/BSS was replaced with 100 μL/well CM, containing DMSO (control) or drugs, and returned to the incubator for 24 h (n=10 replicates/group). (B) DIV9 cells were washed once with BSS, injured 35 min with 40 μM H2O2 dissolved in BSS, and replaced with 100 μL/well CM containing DMSO (control) or drugs. Cell viability was determined 24 h later (DIV10) by addition of 20 μL/well CELLTITER-BLUE® (n=10 replicates/group). Data were analyzed by 1-Way-ANOVA and Newman-Keuls Multiple Comparison Test. Graphs show Mean+SEM. Data are significant at p<0.05. Excitotoxicity is a major cause of neuronal death across the spectrum of CNS injury.
# [4] = test system: Primary rat cortical neurons; assay: Hydrogen peroxide (H2O2)-oxidative stress assay, cell viability by CELLTITER-BLUE; format: cell-based; conditions: 40 μM H2O2 35 min, viability 24 h later
# Description: as §1
# [5] = test system: pAKT473; assay: pAKT473 levels in cultured primary rat cortical neurons (Western blots); format: cell-based; conditions: 25 μM or 50 μM, 35 min
# Description: We tested if NSC74429 also increases pAKT473 levels using our published protocol. In brief, uninjured primary rat cortical neurons were maintained in Neurobasal+B27. Prior to treatments, neurons were given a supplement starvation period by exchanging maintenance media with basic Neurobasal (i.e. minus B27), and returned to a 37° C. incubator for 2 h. Neurons were subsequently treated 35 min with DMSO, 25 μM NSC74429, or 50 μM NSC74429 (diluted in basic Neurobasal). Western blots confirm that PHLPP1 and PHLPP2 isoforms are detected in rat cortical neurons. […] PHLPP inhibitors increase pAKT473 levels but NSC74429 had the opposite effect. Moreover, inhibition of pAKT473 is expected to promote cell death yet NSC74429 (AKT inhibitor) was neuroprotective as shown in FIG. 1 and FIG. 2. […] Data were analyzed by 1-Way-ANOVA and Newman-Keuls Multiple Comparison Test. Graphs show Mean+SEM. Data are significant at p<0.05. Conclusion: Together PHLPP1 and PHLPP2 regulate the dephosphorylation of pAKT473 on AKT1, AKT2, and AKT3 isoforms.
# [6] = test system: Sprague Dawley rats; assay: Adult rat asphyxia cardiac arrest (ACA), hippocampal CA1 cell survival counts; format: in vivo; conditions: 1 mg/kg or 3 mg/kg, given 5 min after ROSC
# Source text: We tested the therapeutic efficacy of NSC74429 in a model of brain injury (ACA) in which the blood brain barrier (BBB) remains intact. Male ˜300 g Sprague Dawley rats were anesthetized on isoflurane (4% induction/2% maintenance on 50% O2/50% N2) and mechanically ventilated. The left femoral artery and vein were accessed and cannulated with heparinized-saline filled PE-50 tubing. EKG, mean arterial pressure (MAP), rectal temperature, and pectoralis temperature were continuously monitored. Body temperature was maintained to 37° C. Arterial blood gas measurements were analyzed and ventilator settings adjusted as needed to achieve normal PaO2 and PaCO2. 2 mg/kg cisatracurium was administered 5 min prior to CA to stop spontaneous breathing (i.e. neuromuscular blockage). The ventilator was disconnected. Mean arterial pressure (MAP) decreased over 2-3 min until reaching target no-flow (<10 mmHG). […] Data were analyzed by 1-Way-ANOVA and Newman-Keuls Multiple Comparison Test. […] The technician that administered drug injections, and the technician that analyzed histology, were blinded to treatment group. A single value in the vehicle-injury group (indicated by a * in the table above) was a statistical outlier as determined by the Dixon's test and was removed from statistical analysis. […]
# [7] = test system: pAKT473; assay: pAKT473 levels in vivo, injured hippocampus after ACA; conditions: rat ACA, 1 or 3 mg/kg, iv 5 min after ROSC and ip 24 h post-injury, tissue 1 h after final injection
# Description: A separate cohort of rats was used to generate hippocampal tissue homogenates. Rats were given ACA and subsequently treated with (a) vehicle, (b) 1 mg/kg NSC74429, or (c) 3 mg/kg NSC74429. Treatments were administered by iv bolus injection 5 min after ROSC, and a 2nd ip bolus injection 24 h post-injury. Shams were administered vehicle injections and preparatory surgery but were not injured. Rats were euthanized 1 h following the final drug injection and brain tissue collected for protein analysis. […] Data were analyzed by 1-Way-ANOVA and Newman-Keuls Multiple Comparison Test. Injured rats were randomized to treatment group, and drugs provided to a technician in de-identified coded vials. The technician that administered drug injections was blinded to treatment group. Graphs show Mean+SEM. Data are significant at p<0.05.
# [8] = test system: C57BL/6 mice; assay: Adult mouse controlled cortical impact plus hemorrhagic shock (CCI+HS), CA1/CA3 cell counts; format: in vivo
# Source text: Traumatic brain injury (TBI) compromises the BBB, making it easier for drugs to reach injured tissue, and TBI is also worsened by secondary injuries such as hypotension due to profound blood loss (HS). Adult male ˜28 g C57BL/6 mice were anesthetized with isoflurane via a nose cone (4% induction/2% maintenance on 70% N2O/30% O2), given preparatory surgery, and sequentially injured by (1) a CCI-TBI and (2) HS, as reported by our group (Jackson et al., 2015). In brief, mice were given a moderate CCI above the left parietal cortex (impact tip velocity 5 m/s and cortical depth 1.0 mm). 5 min later, HS was initiated by withdrawing blood until mean arterial pressure (MAP) decreased from ˜90 mmHG (normal) to ˜25-27 mmHG (hypotensive). HS was maintained for 35 min. Mice were then volume resuscitated using lactated ringer's (LR) solution for 90 min to mimic pre-hospital care (targeted MAP of ˜70 mmHG). Finally, shed blood was returned over 15 min to mimic definitive hospital care and MAP returned to normal. (A-D) In a first study we measured the acute neuroprotective effects of NSC74429 on hippocampal injury 48 h after CCI+HS. Mice were given an intravenous bolus injection of vehicle (5% DMSO in D5W) or NSC74429 (1 mg/kg or 3 mg/kg) immediately after the hospital phase (i.e. […] after the initial CCI-injury). A second intraperitoneal injection was administered 24 h later, and brains collected for CA1/CA3 cell counts 48 h post-injury. One animal died in the vehicle-injury group and four animals died in the 3 mg/kg NSC74429 group prior to tissue collection. (A and B) Scatter plots show CA1/CA3 cell counts in surviving animals. 1 mg/kg NSC74429 was neuroprotective. Hippocampal survival bifurcated in the 3 mg/kg high-dose group; some animals had improved CA1/CA3 survival vs. vehicle-injury whereas others were clearly made worse. Given that mortality was also higher with 3 mg/kg NSC74429 (4 vs. 1), we eliminated the high-dose group from further statistical analysis. (C and D) Statistical analysis of CA1/CA3 cell counts. […] (E and F) A second study was done to test if NSC74429 neuroprotection is sustained chronically by 7 d post-injury. Only the low dose (1 mg/kg) was tested. Mice were injured as described above, given intravenous injection of vehicle or 1 mg/kg drug immediately following the hospital phase of HS, supplemental injections administered intraperitoneally at 24 h, 48 h, and 72 h post-injury, and brains collected for histology 7 d post-injury. […] Data were analyzed by 1-Way-ANOVA and Newman-Keuls Multiple Comparison Test. Graphs show Mean+SEM. Data are significant at p<0.05. Injured rats were randomized to treatment group, and drugs provided to a technician in de-identified coded vials. The technician that administered drug injections, and the technician that analyzed histology, were blinded to treatment group. Conclusion: NSC74429 is neuroprotective in the acute and chronic phase after injury in a severe trauma model.
# [9] = test system: PHLPP2; conditions: reported by Sierecki and colleagues; read-out: IC50 to block PHLPP2; cited from earlier work
# [10] = 1 mg/kg iv then ip at 24 h, 48 h post-injury
compound,measurement,setting,value
COc1cc(NCCC2CCCCN2)c2ncccc2c1 (stereo not shown) [NSC13378],"neuroprotection, cell viability after STS injury",[1]; viability 24 h later (DIV10),failed to protect
CN(C)CCOC(=O)c1ccc(N)cc1 [NSC25247],"neuroprotection, cell viability after STS injury","[1]; 50 μM, viability 24 h later",mildly neuroprotective
Cc1cc(N=Nc2ccc(N=Nc3ccc(O)c(C(=O)[O-])c3)cc2)c(N)cc1N.[Na+] [NSC45586],pAKT473 levels,[2],dose-dependently increase pAKT473 levels
S=C(Nc1ccc2cn[nH]c2c1)Nc1ccc2cn[nH]c2c1 [NSC74429],"neuroprotection, cell viability after STS injury","[1]; 25-50 μM, viability 24 h later",potently neuroprotective
same,glutamate-induced neuronal death,[3]; 25 μM,insufficient to decrease glutamate-induced neuronal death
same,glutamate-induced neuronal death (excitotoxic injury),[3]; 50 μM,reduced excitotoxic injury
same,cell death induced by oxidative stress,[4],decreases cell death
same,pmTOR2448 (other phosphorylated proteins),[5]; uninjured neurons,did not affect
same,pAKT473 levels,[5]; uninjured neurons after 2 h supplement starvation,dose-dependently decreased pAKT473 levels
same,hippocampal CA1 cell survival (neuroprotection),[6],neuroprotective
same,pAKT473 levels in the injured hippocampus,[7],did not increase pAKT473 levels
same,CA1 survival,"[8]; 1 mg/kg iv then ip at 24, 48, 72 h, 7 d post-injury",equivalent in both injured groups
same,"CA3 tissue sparing, above vehicle injury","[8]; 1 mg/kg iv then ip at 24, 48, 72 h, 7 d post-injury, not statistically significant",~17.5%
same,CA1 cell survival,[8]; [10],significantly increased
same,CA3 cell survival,[8]; [10],significantly increased
same,hippocampal CA1/CA3 survival,"[8]; 3 mg/kg high-dose group, 48 h post-injury",bifurcated
same,mortality (animals died prior to tissue collection),"[8]; 3 mg/kg, vs. 1 in vehicle-injury group",4 animals
same,IC50,[9],5 µM
Nc1c(S(=O)(=O)O)cc(Nc2cccc(S(N)(=O)=O)c2)c2c1C(=O)c1ccccc1C2=O [NSC117079],pAKT473 levels,[2],dose-dependently increase pAKT473 levels
